Data from US9771332B2, “2-thiopyrimidinones” (Pfizer Inc., priority 2015, dated 2017).
Where a name gives a salt, the structure may show the parent alone. Read-outs that look alike come from different tables or passages of the source.

Assays:
[1] = target: T1, hERG potassium channel (Homo sapiens, UniProt Q12809); assay: hERG Assay (Qpatch HT automated patch clamp, hERG-transfected CHO cells); format: cell-based; settings: for Therapeutic ratio hERG IC50/MPO IC50: hERG IC50 divided by MPO IC50 in human whole blood; for inhibition at 5 min, 100 µM: at 100 uM; for inhibition at 5 min, 300 µM: at 300 uM
T1 construct: host or cells: CHO cells (PrecisiON hERG-CHO Recombinant Cell Line)
Method: All testing was carried out in CHO cells transfected with the hERG gene purchased from Millipore (PrecisiON hERG-CHO Recombinant Cell Line CYL3038). The cell line was grown in DMEM/F-12, GlutaMAX™ with 10% fetal bovine serum, 1% Penicillin-Streptomycin, 1% Geneticin and 1% of 1M HEPES buffer solution, and maintained at approximately 37° C. in a humidified atmosphere containing 5% carbon dioxide. The cells were passaged every 3-5 days based on confluency. On the day of the experiment, 50%-80% confluent cells were harvested from a 175 cm^2 culture flask using Detachin™. After 10 minutes of exposure to Detachin™ at 37° C., the cells were centrifuged for 1 minute at 1000 RPM. The supernatant was removed and the cell pellet was reconstituted in 5-8 mL of serum free media with 2.5% of 1M HEPES, placed on the Qstirrer™, and allowed to recover. After a ˜30 minute recovery period, experiments were initiated.
hERG current was elicited and recorded using the automated Qpatch HT™ system (as described in Kutchinsky J, Friis S, Asmild M, et al. Characterization of potassium channel modulators with QPatch automated patch-clamp technology: system characteristics and performance. Assay Drug Dev Technol 2003; 1(5):685-93). The suspended cells in the Qstirrer™ were transferred to 48 individual recording chambers on a Qplate 48™ containing extracellular recording saline composed of (in mM): 138 NaCl, 5.3 KCl, 1.3 CaCl2, 0.5 MgCl2, 5.6 Glucose, 5 HEPES, 0.4 MgSO4, 0.44 KH2PO4, 4.2 NaHCO3, 0.34 Na2HPO4, and adjusted to pH 7.4±0.1 with NaOH. The intracellular recording saline was composed of (in mM): 130 KCl, 1 MgCl2, 10 HEPES, 5 Mg-ATP, and 5 EGTA, and adjusted to pH 7.2±0.1 with KOH. Membrane currents were recorded at room temperature.
hERG current was elicited from a holding potential of −80 mV with a voltage step to +30 mV for 1 second, followed by a ramp back to −80 mV at 0.55 mV/ms. Test pulses were delivered at a frequency of 0.25 Hz. Up to 4 different concentrations were studied on each cell, each exposure lasting 5 minutes or until steady-state effects were observed. In a separate set of experiments, a full concentration-response relationship and an IC50 was determined for a positive control, cisapride, (Jules C. Hancox, Mark J. McPate, Aziza El Harchi, Yi hong Zhang, The hERG potassium channel and hERG screening for drug-induced torsades de pointes, Pharmacology & Therapeutics, Volume 119, Issue 2, August 2008, Pages 118-132).
Using Sophion Qpatch Assay Software, the amplitude of the peak outward hERG current upon repolarizing ramp was measured. Current amplitude was determined by taking the average of the last 5 current peaks under each treatment condition. Percent inhibition was determined by taking the ratio of the current measured at steady state in the presence of test article (ITest article) versus the control current (Icontrol), and expressed as: % inhibition=100−(ITest article/IControl)*100. When possible, a concentration-response curve was plotted and the data were fitted using Qpatch software to determine an IC50.

[2] = target: T2, MPO (Homo sapiens, UniProt P05164); assay: Human Whole Blood Assay for Irreversible Inhibition of MPO; format: cell-based; settings: LPS-stimulated human whole blood, 4 hour incubation; irreversible inhibition of active MPO
T2 construct: endogenous in cells; host or cells: human whole blood leukocytes, LPS-stimulated
Method: To measure the inhibition of MPO activity in a biological system in the present invention, bioassays were performed with human whole blood that was collected from medication-free, human volunteers in heparin treated tubes (APP Pharmaceuticals, LLC, cat # NDC#63323-047-10, #4710). Blood was aliquoted and treated with different concentrations of the MPO inhibitor or vehicle control and co-treated with or without bacterial lipopolysaccharide (LPS, InVivogen) to stimulate blood leukocytes to simultaneously generate H2O2 (a required MPO substrate) and the release of MPO. After a 4 hour incubation at room temperature the plasma fraction was collected following a 2000×g centrifugation at 4° C.
The plasma fraction was divided in two for analysis of total MPO and active MPO. The total MPO content was determined using a standard sandwich ELISA (capture and detection antibodies: Cell Sciences, Cat# HP9048, and Cell Sciences, Cat# HM2164, clone 266-6K1) and calculated relative to a standard curve of purified MPO (myeloperoxidase, Calbiochem, cat#475911) that was prepared by dilution in the autologous donor plasma. The MPO activity is determined by capturing the total MPO from plasma using the capture step as described for the above ELISA method. […] The MPO activity of the captured material was compared to that obtained with a standard curve of purified MPO (myeloperoxidase, Calbiochem, cat#475911) that was prepared in autologous donor plasma. The percent of ‘active’ myeloperoxidase for each sample was calculated from the ratio of the active myeloperoxidase in the Amplex Red assay and the total myeloperoxidase from the ELISA for each sample. A dose response curve of the compound concentration versus MPO activity was then plotted to determine the IC50 value.

[3] = fit to a concentration-response curve, read-out: hERG IC50 (determined by curve fitting)
[4] = extrapolated from single-point % inhibition, read-out: hERG IC50 (extrapolated from % activity shown)

T1 sequence (Q12809 whole entry): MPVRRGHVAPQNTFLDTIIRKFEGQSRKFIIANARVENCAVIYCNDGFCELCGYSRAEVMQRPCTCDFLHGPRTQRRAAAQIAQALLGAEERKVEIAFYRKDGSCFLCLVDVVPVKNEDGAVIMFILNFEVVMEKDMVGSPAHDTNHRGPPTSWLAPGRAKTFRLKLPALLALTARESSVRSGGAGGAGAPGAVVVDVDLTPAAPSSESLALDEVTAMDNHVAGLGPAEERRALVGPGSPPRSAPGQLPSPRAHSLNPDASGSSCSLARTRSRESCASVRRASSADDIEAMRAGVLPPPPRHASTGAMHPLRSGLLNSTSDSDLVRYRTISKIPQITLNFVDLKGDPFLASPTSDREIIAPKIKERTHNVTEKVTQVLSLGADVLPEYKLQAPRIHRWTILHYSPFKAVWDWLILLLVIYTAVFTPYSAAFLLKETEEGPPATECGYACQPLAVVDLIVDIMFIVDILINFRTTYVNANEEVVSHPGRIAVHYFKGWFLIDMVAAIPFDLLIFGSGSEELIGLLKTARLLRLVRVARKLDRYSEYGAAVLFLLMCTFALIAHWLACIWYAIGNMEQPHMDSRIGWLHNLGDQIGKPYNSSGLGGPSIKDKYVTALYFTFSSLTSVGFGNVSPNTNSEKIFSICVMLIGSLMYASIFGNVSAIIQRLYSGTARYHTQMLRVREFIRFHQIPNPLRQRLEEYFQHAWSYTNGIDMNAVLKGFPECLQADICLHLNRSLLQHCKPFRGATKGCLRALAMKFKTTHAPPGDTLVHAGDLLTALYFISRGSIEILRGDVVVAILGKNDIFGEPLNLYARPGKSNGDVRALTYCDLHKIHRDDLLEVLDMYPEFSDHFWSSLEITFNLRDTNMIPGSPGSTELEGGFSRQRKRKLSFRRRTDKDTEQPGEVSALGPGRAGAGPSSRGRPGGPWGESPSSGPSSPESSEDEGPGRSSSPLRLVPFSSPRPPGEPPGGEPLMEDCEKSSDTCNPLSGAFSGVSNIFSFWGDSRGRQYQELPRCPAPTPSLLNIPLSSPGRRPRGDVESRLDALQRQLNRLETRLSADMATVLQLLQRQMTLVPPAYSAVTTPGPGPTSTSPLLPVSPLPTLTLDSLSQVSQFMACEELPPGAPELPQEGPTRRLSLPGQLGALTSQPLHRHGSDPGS
T2 sequence (P05164 279-745 limits assumed): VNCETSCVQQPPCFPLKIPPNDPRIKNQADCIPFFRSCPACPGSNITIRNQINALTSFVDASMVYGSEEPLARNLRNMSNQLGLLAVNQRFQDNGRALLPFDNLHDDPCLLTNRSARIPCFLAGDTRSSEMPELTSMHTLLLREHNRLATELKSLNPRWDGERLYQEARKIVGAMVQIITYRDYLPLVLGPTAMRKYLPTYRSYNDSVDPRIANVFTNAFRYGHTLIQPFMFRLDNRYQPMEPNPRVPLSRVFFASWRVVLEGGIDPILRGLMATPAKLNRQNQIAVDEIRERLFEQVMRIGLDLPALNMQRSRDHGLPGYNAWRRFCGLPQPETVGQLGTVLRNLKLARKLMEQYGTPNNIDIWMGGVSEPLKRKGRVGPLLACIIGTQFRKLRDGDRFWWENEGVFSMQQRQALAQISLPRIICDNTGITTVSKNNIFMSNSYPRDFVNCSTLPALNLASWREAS
T2 sequence (P05164 165-273 limits assumed): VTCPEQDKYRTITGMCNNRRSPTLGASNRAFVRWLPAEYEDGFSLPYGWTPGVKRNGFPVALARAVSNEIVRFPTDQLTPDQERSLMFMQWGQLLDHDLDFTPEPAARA

| IC50 [2] [µM] | Structure (SMILES) | IC50 [1, 3] [µM] | Therapeutic ratio hERG IC50/MPO IC50 [1] | inhibition at 5 min, 30 µM ([1]; human, pH 7.4, at 30 uM) [%] | inhibition at 5 min, 100 µM ([1]; human, pH 7.4) [%] | hERG IC50/MPO IC50 safety ratio over compound C ([1]; 5515/41) [times] | hERG IC50/MPO IC50 safety ratio over compound D ([1]; 5515/162) [times] | hERG IC50/MPO IC50 safety ratio over compound E ([1]; 5515/260) [times] | hERG IC50/MPO IC50 safety ratio over compound F ([1]; 5515/900) [times] | hERG IC50/MPO IC50 safety ratio over compound G ([1]; 5515/1500) [times] | IC50 [1, 4] [µM] | inhibition at 5 min, 300 µM ([1]; human, pH 7.4) [%] |
| --- | --- | --- | --- | --- | --- | --- | --- | --- | --- | --- | --- | --- |
| 2.5 | COc1ccc(C)cc1-c1cc(=O)[nH]c(=S)n1CC(N)=O [Compound B] | – | – | – | – | – | – | – | – | – | – | – |
| 0.99 | COc1ccc(C)cc1-c1cc(=O)[nH]c(=S)n1CCN [D] | 160 | 162 | – | 40 | – | – | – | – | – | – | 63 |
| 0.6 | COc1ccc(-c2cc(=O)[nH]c(=S)n2CC(=O)NCCN)c(OC)c1 [G, N-(2-aminoethyl)-2-[6-(2,4-dimethoxyphenyl)-4-oxo-2-thioxo-3,4-dihydropyrimidin-1(2H)-yl]acetamide] | – | 1500 | – | – | – | – | – | – | – | 900 | 25 |

Second part, the compound before the results:

| Structure (SMILES) | IC50 [2] [µM] | IC50 [1, 3] [µM] | Therapeutic ratio hERG IC50/MPO IC50 [1] | inhibition at 5 min, 30 µM ([1]; human, pH 7.4, at 30 uM) [%] | inhibition at 5 min, 100 µM ([1]; human, pH 7.4) [%] | hERG IC50/MPO IC50 safety ratio over compound C ([1]; 5515/41) [times] | hERG IC50/MPO IC50 safety ratio over compound D ([1]; 5515/162) [times] | hERG IC50/MPO IC50 safety ratio over compound E ([1]; 5515/260) [times] | hERG IC50/MPO IC50 safety ratio over compound F ([1]; 5515/900) [times] | hERG IC50/MPO IC50 safety ratio over compound G ([1]; 5515/1500) [times] | IC50 [1, 4] [µM] | inhibition at 5 min, 300 µM ([1]; human, pH 7.4) [%] |
| --- | --- | --- | --- | --- | --- | --- | --- | --- | --- | --- | --- | --- |
| COc1ccc(Cl)cc1-c1cc(=O)[nH]c(=S)n1CCN [C] | 0.8 | 33 | 41 | 49 | 75 | – | – | – | – | – | – | – |
| Cc1ccc(OCCO)c(-c2cc(=O)[nH]c(=S)n2CCN)c1 [Compound A, 1-(2-Aminoethyl)-6-(2-(2-hydroxyethoxy)-5-methylphenyl)-2-thioxo-2,3-dihydropyrimidin-4(1H)-one hydrochloride] | 0.55 | – | 5515 | – | – | 135 | 34 | 21 | 6.1 | 3.7 | 3030 | 9 |
| NCCn1c(-c2cc(Cl)ccc2OCCO)cc(=O)[nH]c1=S [Compound E] | 1.3 | – | 260 | – | 23 | – | – | – | – | – | 335 | – |
| COc1ccc(Cl)cc1-c1cc(=O)[nH]c(=S)n1CC(N)=O [F, 2-(6-(5-chloro-2-methoxyphenyl)-4-oxo-2-thioxo-3,4-dihydropyrimidin-1(2H)-yl)acetamide] | – | – | – | – | – | – | – | – | – | – | 1700 | 15 |
